Results reported in patent US11873298B2, “Compounds and uses thereof” (JANSSEN PHARMACEUTICA NV, priority 2017, dated 2024).

Assays:
SCD1 = molecular target: T1, SCD1 (Homo sapiens, UniProt O00767); assay: Growth inhibition of humanized yeast strain expressing SCD1 as sole desaturase; assay type: cell-based
T1 construct: host or cells: S. cerevisiae ole1Δ strain (W303 pdr1Δ pdr3Δ background), plasmid pRS316 with TDH3 promoter and CYC1 terminator
T1 sequence (O00767 1-359): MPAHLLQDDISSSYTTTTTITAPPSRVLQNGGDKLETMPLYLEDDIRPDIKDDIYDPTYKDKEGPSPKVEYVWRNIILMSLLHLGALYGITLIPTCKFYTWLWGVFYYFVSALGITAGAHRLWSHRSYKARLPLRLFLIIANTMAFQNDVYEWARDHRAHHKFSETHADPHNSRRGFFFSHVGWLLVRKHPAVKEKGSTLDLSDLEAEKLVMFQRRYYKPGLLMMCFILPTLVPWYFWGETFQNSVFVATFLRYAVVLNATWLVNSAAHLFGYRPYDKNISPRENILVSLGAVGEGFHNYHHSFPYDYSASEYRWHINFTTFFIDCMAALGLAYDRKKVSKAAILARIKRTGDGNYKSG
How it was run: (§1)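 Yeast ole1Δ strain (W303 pdr1Δ pdr3Δ background) carrying plasmid-borne Ole1, SCD1 or SCD5 as sole desaturase was grown in uracil-lacking media, pre-cultured in raffinose for 6 h, then seeded in galactose medium with compound in DMSO. Growth was read as OD600 after 30° C. incubation: 24 h for Ole1, 40 h for SCD1/SCD5.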

SCD5 = molecular target: T2, SCD5 (Homo sapiens, UniProt Q86SK9); assay: Growth inhibition of humanized yeast strain expressing SCD5 as sole desaturase; assay type: cell-based
T2 construct: host or cells: S. cerevisiae ole1Δ strain (W303 pdr1Δ pdr3Δ background), plasmid pRS316 with TDH3 promoter and CYC1 terminator
T2 sequence (Q86SK9 1-330): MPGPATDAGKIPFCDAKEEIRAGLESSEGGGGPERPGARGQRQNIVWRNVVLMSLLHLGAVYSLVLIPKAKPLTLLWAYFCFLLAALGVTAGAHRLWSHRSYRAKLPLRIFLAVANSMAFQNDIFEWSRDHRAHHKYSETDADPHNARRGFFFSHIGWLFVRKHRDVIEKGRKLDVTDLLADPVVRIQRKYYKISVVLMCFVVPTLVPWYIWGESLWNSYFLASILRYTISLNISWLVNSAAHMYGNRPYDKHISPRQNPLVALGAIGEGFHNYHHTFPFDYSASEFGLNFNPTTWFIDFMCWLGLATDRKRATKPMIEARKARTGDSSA
How it was run: as §1

[1] = growth inhibition of humanized yeast strain expressing human SCD1
[2] = growth inhibition of humanized yeast strain expressing human SCD5
[3] = humanized yeast strain expressing SCD1
[4] = humanized yeast strain expressing SCD5

| Compound | IC50 (SCD1; humanized yeast strain, 40 h) [µM] | IC50 (SCD5; humanized yeast strain, 40 h) [µM] | other results |
| --- | --- | --- | --- |
| O=C(CC1CC1)N1CCN(c2noc(-c3ccc4cnn(C5COC5)c4c3)n2)CC(F)(F)C1 [Compound 1035] | > 45 | 0.265 | – |
| CC(C)(C)OC(=O)N1CCC(c2nnc(-c3ccc4cnn(C5COC5)c4c3)o2)CC1 [Compound 851] | > 45 | 0.065 | – |
| CC(=O)N1CC(CC(=O)N2CCC(c3nc(-c4ccc5c(C)nn(C)c5c4)no3)CC2)C1 [Compound 638] | – | – | IC50 (SCD1; [1]): > 45 µM; IC50 (SCD5; [2]): > 45 µM |
| CC(C)n1ncc2ccc(-c3noc(C4CCN(C(=O)CNC(=O)c5cccc(F)c5)CC4(F)F)n3)cc21 (stereo not drawn) [Compound 551] | – | – | IC50 (SCD1; [3]): > 45 µM; IC50 (SCD5; [4]): > 45 µM |
| O=C(C1CCC1)N1CCCN(c2noc(-c3ccc4cnn(C5COC5)c4c3)n2)CC1 [Compound 961] | > 45 | > 45 | – |
| CC(C)(C)OC(=O)N1CCC(c2nc(-c3ccc4cnn([C@H]5C[C@](C)(O)C5)c4c3)no2)CC1 [Compound 820] | > 45 | 3.74 | – |
| CC(C)n1ncc2ccc(-c3noc(C4(F)CCN(C(=O)OC5CC5)CC4)n3)cc21 [Compound 624] | – | – | IC50 (SCD1; [1]): > 45 µM; IC50 (SCD5; [2]): 0.222 µM |
| COCCOC(=O)N1CCC(c2noc(-c3ccc4cnn(C5COC5)c4c3)n2)CC1 [Compound 929] | > 45 | 4.42 | – |
| COC(=O)N1CCC(c2noc(-c3ccnc(OC4COC4)c3)n2)CC1 [Compound 1064] | > 45 | 3.44 | – |
| CC(C)n1nc(CCN(C)C)c2ccc(-c3noc(C4CCN(C(=O)OC(C)(C)C)CC4)n3)cc21 [Compound 759] | > 45 | > 45 | – |
| O=C(C1CCC1)N1CCN(c2noc(-c3ccnc(NC4COC4)c3)n2)CC1 [Compound 1001] | > 45 | 15.6 | – |
| CC(C)(C)OC(=O)N1CC2(CC(c3noc(-c4ccc5cnn(C6COC6)c5c4)n3)C2)C1 [Compound 1020] | 14.6 | 0.17 | – |
| CC(C)n1ncc2ccc(-c3noc(C4CCN(C(=O)CNC(=O)c5ccc(C#N)cc5)CC4(F)F)n3)cc21 (stereo not drawn) [Compound 552] | – | – | IC50 (SCD1; [3]): > 45 µM; IC50 (SCD5; [4]): > 45 µM |
| CC(C)(C)OC(=O)N1CCC(c2noc(-c3cccc(C4CCOC4)n3)n2)CC1 (stereo not drawn) [Compound 1189] | > 45 | 7.72 | – |
| O=C(C1CCC1)N1CCC(c2noc(-c3ccc4cnn(C5COC5)c4c3)n2)CC1 [Compound 880] | > 45 | 0.01 | – |
| CC(C)n1ncc2ccc(-c3noc(C4CCN(C(=O)CNC(=O)c5ccc(F)cc5)CC4(F)F)n3)cc21 (stereo not drawn) [Compound 681] | – | – | IC50 (SCD1; [1]): > 45 µM; IC50 (SCD5; [2]): > 45 µM |
| CC(C)(C)OC(=O)N1CCC(c2nc(-c3ccc4cn(C5CCOC5)nc4c3)no2)CC1 (stereo not drawn) [Compound 655] | – | – | IC50 (SCD1; [1]): > 45 µM; IC50 (SCD5; [2]): > 45 µM |
| Cc1nn(C)c2cc(-c3noc(C4CCN(C(=O)CNC(=O)c5ccc(F)cc5)CC4(F)F)n3)ccc12 (stereo not drawn) [Compound 557] | – | – | IC50 (SCD1; [3]): > 45 µM; IC50 (SCD5; [4]): 6.03 µM |
| COC(=O)N1CCC(c2noc(-c3cc4c(cnn4C4COC4)cc3F)n2)CC1 [Compound 944] | > 45 | 2.22 | – |
| CC(C)n1nc(CCO)c2ccc(-c3noc(C4CCN(C(=O)OC(C)(C)C)CC4)n3)cc21 [Compound 699] | – | – | IC50 (SCD1; [1]): > 45 µM; IC50 (SCD5; [2]): 7.65 µM |
| COC(=O)N1CCC(c2noc(-c3ccc4cnn(C5CCCC5)c4c3)n2)CC1 [Compound 1042] | > 45 | 0.079 | – |
| Cc1nn(C)c2cc(-c3noc(C4CCN(C(=O)CNC(=O)c5ccc(C#N)cc5)CC4(F)F)n3)ccc12 (stereo not drawn) [Compound 601] | – | – | IC50 (SCD1; [3]): > 45 µM; IC50 (SCD5; [4]): 5.69 µM |
| Cc1nn(C)c2cc(-c3noc(C4CCN(C(=O)CNC(=O)c5cccc(F)c5)CC4(F)F)n3)ccc12 (stereo not drawn) [Compound 602] | – | – | IC50 (SCD1; [3]): 15.9 µM; IC50 (SCD5; [4]): 2.74 µM |
| CC(C)n1ncc2ccc(-c3noc(C4CCN(C(C)C(F)(F)F)CC4)n3)cc21 (stereo not drawn) [Compound 1051] | > 45 | 7.5 | – |

| Compound | IC50 (SCD1; humanized yeast strain, 40 h) [µM] | IC50 (SCD5; humanized yeast strain, 40 h) [µM] | other results |
| --- | --- | --- | --- |
| CCC(=O)N1CCC(c2cc(-c3cc4c(cn3)cnn4C3COC3)no2)CC1 [Compound 1147] | > 45 | 5.46 | – |
| CC1(C(=O)N2CCC(c3noc(-c4ccnc(C5CCOC5)c4)n3)CC2)CC1 (stereo not drawn) [Compound 1178] | > 45 | 0.63 | – |
| CC(C)c1nccn2cc(-c3nc(C4CCN(C(=O)OC(C)(C)C)CC4)no3)cc12 [Compound 901] | > 45 | > 45 | – |
| CC(C)(C)OC(=O)N1CCC(c2nc(-c3ccc4cnn([C@@H]5CCOC5)c4c3)no2)CC1 [Compound 792] | 8.83 | 0.01 | – |
| CC(C)n1ncc2ccc(-c3noc(C4CCN(C(=O)C5(C#N)CC5)CC4)n3)cc21 [Compound 688] | – | – | IC50 (SCD1; [1]): > 45 µM; IC50 (SCD5; [2]): 1.5 µM |
| CC(C)C(=O)N1CCC(c2noc(-c3ccc4cnn(C5CCOC5)c4c3)n2)CC1 (stereo not drawn) [Compound 1024] | > 45 | 0.01 | – |
| Cc1nn(C)c2cc(-c3nc(C4CCN(C(=O)OC5CCC5)CC4)no3)ccc12 [Compound 923] | > 45 | > 45 | – |
| O=C(N1CCC(c2noc(-c3ccc4cnn(C5COC5)c4c3)n2)CC1)C1(F)CC1 [Compound 952] | 15.6 | 9.22 | – |
| O=C(c1ccccc1)N1CCN(c2noc(-c3ccc4cnn(C5COC5)c4c3)n2)CC1 [Compound 712] | – | – | IC50 (SCD1; [1]): > 45 µM; IC50 (SCD5; [2]): 0.016 µM |
| CC(C)(C)OC(=O)N1CCC(c2noc(-c3cccc([C@@H]4CCOC4)c3)n2)CC1 [Compound 795] | > 45 | 0.01 | – |
| CNC(=O)c1nc(-c2ccc3c(C)nn(C)c3c2)no1 [Compound 745] | – | – | IC50 (SCD1; [1]): > 45 µM; IC50 (SCD5; [2]): > 45 µM |
| CCOC(=O)N1CCN(c2nc(-c3ccc4cnn(C(C)C)c4c3)no2)CC1 [Compound 668] | – | – | IC50 (SCD1; [1]): > 45 µM; IC50 (SCD5; [2]): 0.719 µM |
| Cc1nn(C)c2cc(-c3noc(C4CCN(C(=O)CNC(=O)c5cccc(C#N)c5)CC4(F)F)n3)ccc12 (stereo not drawn) [Compound 604] | – | – | IC50 (SCD1; [3]): > 45 µM; IC50 (SCD5; [4]): 6.12 µM |
| CC(C)n1ncc2ccc(-c3ccc(C4CCN(C(=O)OC(C)(C)C)C4)nn3)cc21 (stereo not drawn) [Compound 733] | – | – | IC50 (SCD1; [1]): > 45 µM; IC50 (SCD5; [2]): 2.73 µM |
| CC(C)n1ncc2ccc(-c3noc(N4CCC(C5COC5)CC4)n3)cc21 [Compound 743] | – | – | IC50 (SCD1; [1]): > 45 µM; IC50 (SCD5; [2]): 14.8 µM |
| CC(C)n1ncc2ccc(-c3nc(C4CCN(C(=O)C5(O)CC5)CC4)no3)cc21 [Compound 722] | – | – | IC50 (SCD1; [1]): > 45 µM; IC50 (SCD5; [2]): 1.37 µM |
| COC(=O)N1CCC(c2noc(-c3cccc(N4CCOCC4)c3)n2)CC1 [Compound 983] | > 45 | 1.51 | – |
| CN1CC2CN(c3nc(-c4ccc5cnn(C6COC6)c5c4)no3)CCN2C1=O (stereo not drawn) [Compound 1142] | > 45 | > 45 | – |
| CC(C)C(=O)N1CCC(c2noc(-c3cnc4cnn(C5COC5)c4c3)n2)CC1 [Compound 1138] | > 45 | 0.761 | – |
| CC(C)n1ncc2ccc(-c3noc(C4CCN(C(=O)CNC(=O)c5ccc(Cl)cc5)CC4(F)F)n3)cc21 (stereo not drawn) [Compound 521] | – | – | IC50 (SCD1; [3]): > 45 µM; IC50 (SCD5; [4]): 8.79 µM |
| COC(=O)N1CCC(c2nc(-c3ccc4onc(C(C)C)c4c3)no2)CC1 [Compound 646] | – | – | IC50 (SCD1; [1]): > 45 µM; IC50 (SCD5; [2]): 1.18 µM |
| COC(=O)N1CCN(c2noc(-c3ccnc(OC(CO)CO)c3)n2)CC1 [Compound 1007] | > 45 | > 45 | – |
| CC1(CC(=O)N2CCN(c3nnc(-c4ccc5cnn(C6COC6)c5c4)o3)CC2)CC1 [Compound 995] | > 45 | > 45 | – |
| CC(C)n1ncc2ccc(-c3nc(C4CCN(C(=O)CC5CC5)CC4)no3)cc21 [Compound 853] | > 45 | 0.01 | – |
